# pIC50: −log10 of the molar value. Values joined by “and” are separate entries in the source; they are usually repeats but may differ in a detail not shown here. Identical values can stand only once.
# System: 967376-340-R-J2-PDC multicell spheroid viability
# Assay: Anticancer human tumor 967376-340-R-J2-PDC patient-derived colon adenocarcinoma cell line growth inhibition [PI3K]
# Conditions: for viability, T/C: stronger effect = lower value
# Text: Combinatorial screen of targeted agents with the PI3K inhibitors inavolisib, alpelisib, duvelisib, and copanlisib in multi-cell type tumor spheroids
# A high-throughput screen of multi-cell type tumor spheroids was designed to identify active combinations of targeted small molecules and PI3K pathway inhibitors. Complex spheroids include a stromal component modeled by human endothelial cells (HUVEC) and fibroblasts modeled by human mesenchymal stem cells (MSCs). The concentration ranges selected for each drug and investigational agent were based upon clinically achievable concentrations if the clinical Cmax of the agent was known.
# Compounds. The drugs and investigational agents: inavolisib (NSC800729), alpelisib (NSC765974), duvelisib (NSC772469), copanlisib (NSC816437), ipatasertib (NSC767898), afuresertib (NSC778305), talazoparib (NSC767125), sapanisertib (NSC764658), selumetinib (NSC741078), tovorafenib (DAY101, NSC766906), vemurafenib (NSC761431), ravoxertinib (NSC781343), sotorasib (NSC818433), MRTX1133 (NSC 836407), abemaciclib (NSC 768073), palbociclib (NSC758247), venetoclax (NSC 766270), SY5609 (NSC837396), enzalutamide (NSC755605), and darolutamide (NSC825331), were obtained from the National Cancer Institute (NCI) Developmental Therapeutics Program Chemical Repository. The FDA-approved anticancer drug set is available from the NCI Developmental Therapeutics Program. […] The stock solutions were prepared in dimethyl sulfoxide (DMSO, Sigma-Aldrich, St. Louis, MO, cat. D2650) at 800-fold the tested concentration and stored at -70 degrees C prior to their use. All drugs and investigational agents were tested over a range starting from a high concentration at or near the clinical Cmax and decreasing in half-log increments. If the clinical Cmax for an agent had not been determined, the highest concentration tested was 10 microM.
# Cell Culture. All cells were maintained in an incubator at 37 degrees C and 5% CO2 with 95% humidity. The PDC lines were cultured according to standard operating procedures established by the NCI PDMR (https://pdmr.cancer.gov/sops/default.htm). All PDCs were thawed and cultured in Matrigel-coated flasks prepared with a working solution of 1X Ham's F-12 nutrient mix, without supplementation (Invitrogen, Waltham, MA, cat. 11765054), 100 U/mL penicillin-streptomycin (Invitrogen, cat. 15140122), and 2.5% Matrigel (Corning Inc., Corning, NY, cat. 354248) for the first three passages. The 354836-022-R-J1-PDC, 475296-252-R-J1-PDC, and 997726-040-R-J2-PDC lines were cultured in 6A media, which includes advanced DMEM/F-12 (Thermo Fisher Scientific, cat. 12634028), 10 mM HEPES (Thermo Fisher Scientific, cat. 15630080), 1X GlutaMAX supplement (Thermo Fisher Scientific, cat. 35050061), 0.1 mg/mL primocin (InvivoGen, San Diego, CA, cat. ant-pm-2), 10% defined fetal bovine serum, heat inactivated (HyClone Laboratories Inc., Logan, UT, cat. SH30070.03HI), 50% L-WRN conditioned media (ATCC, cat. CRL-3276), 1.25 mM N-Acetyl-L-cysteine (Sigma-Aldrich, cat. A9165), 10 mM nicotinamide (Sigma-Aldrich, cat. N0636), 1X B-27 supplement (Thermo Fisher Scientific, cat. 17504044), 1X N-2 supplement (Thermo Fisher Scientific, cat. 17502048), and 10 microM Y-27632 dihydrochloride (Tocris Bioscience, Bristol, United Kingdom, cat. 1254). The 624824-186-R-J2-PDC line was cultured in 6C/Colon 1B media, which includes all 6A media components plus 50 ng/mL human EGF recombinant protein (Thermo Fisher Scientific, cat. PHG0311). […]
# 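Further: spheroids exposed to agents for 7 days before read-out.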
# 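Wherever viability, T/C is given: luminescence used as surrogate of cell viability.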
structure (smiles),measurement,setting,value
CC1(C)CCC(Nc2ncc(C(F)(F)F)c(-c3c[nH]c4c(P(C)(C)=O)c(C#N)ccc34)n2)CN1 (stereo unspecified) + COc1c(OCCCN2CCOCC2)ccc2c3n(c(=NC(=O)c4cnc(N)nc4)nc12)CCN3,pIC50,"curve of first compound, second compound 0.00316 µM",< 5.00
same,pIC50,"curve of first compound, second compound 0.01 µM",5.02
same,pIC50,"curve of first compound, second compound 0.0316 µM",5.51
same,pIC50,"curve of first compound, second compound 0.1 µM",6.71
same,pIC50,"curve of first compound, second compound 0.316 µM",> 7.50
same,pIC50,"curve of first compound, second compound 1 µM",> 7.50
same,"viability, T/C","second compound 0.00316 µM, first compound 0.0316 µM",84.5%
same,"viability, T/C","second compound 0.00316 µM, first compound 0.1 µM",81.8%
same,"viability, T/C","second compound 0.00316 µM, first compound 0.316 µM",80.2%
same,"viability, T/C","second compound 0.00316 µM, first compound 1 µM",80%
same,"viability, T/C","second compound 0.00316 µM, first compound 3.16 µM",66.2%
same,"viability, T/C","second compound 0.00316 µM, first compound 10 µM",59.6%
same,"viability, T/C","second compound 0.01 µM, first compound 0.0316 µM",79.7%
same,"viability, T/C","second compound 0.01 µM, first compound 0.1 µM",77.4%
same,"viability, T/C","second compound 0.01 µM, first compound 0.316 µM",75.2%
same,"viability, T/C","second compound 0.01 µM, first compound 1 µM",75.5%
same,"viability, T/C","second compound 0.01 µM, first compound 3.16 µM",61.9%
same,"viability, T/C","second compound 0.01 µM, first compound 10 µM",49.4%
same,"viability, T/C","second compound 0.0316 µM, first compound 0.0316 µM",69.9%
same,"viability, T/C","second compound 0.0316 µM, first compound 0.1 µM",84%
same,"viability, T/C","second compound 0.0316 µM, first compound 0.316 µM",73.8%
same,"viability, T/C","second compound 0.0316 µM, first compound 1 µM",66.5%
same,"viability, T/C","second compound 0.0316 µM, first compound 3.16 µM",49.4%
same,"viability, T/C","second compound 0.0316 µM, first compound 10 µM",45.9%
same,"viability, T/C","second compound 0.1 µM, first compound 0.0316 µM",72.3%
same,"viability, T/C","second compound 0.1 µM, first compound 0.1 µM",47.6%
same,"viability, T/C","second compound 0.1 µM, first compound 0.316 µM",54.1%
same,"viability, T/C","second compound 0.1 µM, first compound 1 µM",45.5%
same,"viability, T/C","second compound 0.1 µM, first compound 3.16 µM",43.7%
same,"viability, T/C","second compound 0.1 µM, first compound 10 µM",36.5%
same,"viability, T/C","second compound 0.316 µM, first compound 0.0316 µM",49.4%
same,"viability, T/C","second compound 0.316 µM, first compound 0.1 µM",45%
same,"viability, T/C","second compound 0.316 µM, first compound 0.316 µM",37.3%
same,"viability, T/C","second compound 0.316 µM, first compound 1 µM",38.4%
same,"viability, T/C","second compound 0.316 µM, first compound 3.16 µM",36.6%
same,"viability, T/C","second compound 0.316 µM, first compound 10 µM",22.3%
same,"viability, T/C","second compound 1 µM, first compound 0.0316 µM",32%
same,"viability, T/C","second compound 1 µM, first compound 0.1 µM",27.4%
same,"viability, T/C","second compound 1 µM, first compound 0.316 µM",34%
same,"viability, T/C","second compound 1 µM, first compound 1 µM",30.7%
same,"viability, T/C","second compound 1 µM, first compound 3.16 µM",27.1%
same,"viability, T/C","second compound 1 µM, first compound 10 µM",20.9%
CNC(=O)c1ccc(N2C(=S)N(c3ccc(C#N)c(C(F)(F)F)c3)C(=O)C2(C)C)cc1F,"viability, T/C",compound 0.1 µM,94.8% (2×) and 84.5% and 88.3%
same,"viability, T/C",compound 0.316 µM,96.1% [middle of 4 runs]
same,"viability, T/C",compound 1 µM,87.2% [middle of 4 runs]
same,"viability, T/C",compound 10 µM,102% [middle of 4 runs]
same,pIC50,curve of compound,< 5.00
C#Cc1c(F)ccc2cc(O)cc(-c3ncc4c(N5CC6CCC(C5)N6)nc(OCC56CCCN5CC(F)C6)nc4c3F)c12 (stereo unspecified),"viability, T/C",compound 0.0316 µM,106% [middle of 4 runs]
same,"viability, T/C",compound 0.1 µM,109% and 101% (2×) and 92.1%
same,"viability, T/C",compound 3.16 µM,91.7% [middle of 4 runs]
same,pIC50,curve of compound,< 5.00
